For the experiment, the target named is T1, Gag-Pol polyprotein [588-1027]/[588-1147] (Human immunodeficiency virus 1, UniProt P04585).
T1 construct: 588-1027; 588-1147
Briefly: HIV-1 RT Assay. Particulars: pH 7.9.

Where “and” joins values, the source holds several entries; their conditions need not be identical. Equal entries are not always repeated.

Regarding `CCC(CCCC=C(c1cc(Cl)c(OC)c(CO)c1)c1cc(Cl)c(OC)c(CO)c1)C1OCCO1` (stereo not drawn) [(3-chloro-5-{1-[3-chloro-5-(hydroxymethyl)-4-methoxyphenyl]-6-(1,3-dioxolan-2-yl)oct-1-en-1-yl}-2-methoxyphenyl)methanol], the concentration for half-maximal inhibition (IC50) (commonly the point on the concentration scale where inhibition reaches its midpoint) was 3.2 µM and 31.6 µM.
With `COC(=O)CCC=C(c1cc(Cl)c(OC)c(C(=O)OC)c1)c1cc(Cl)c(OC)c(C(=O)OC)c1` [methyl 3-chloro-5-{1-[3-chloro-4-methoxy-5-(methoxycarbonyl)phenyl]-5-methoxy-5-oxopent-1-en-1-yl}-2-methoxybenzoate] the figure was over 100 µM; with `COC(=O)CC=C(c1cc(Cl)c(OC)c(C(=O)OC)c1)c1cc(Cl)c(OC)c(C(=O)OC)c1` [methyl 3-chloro-5-{1-[3-chloro-4-methoxy-5-(methoxycarbonyl)phenyl]-4-methoxy-4-oxobut-1-en-1-yl}-2-methoxybenzoate], over 100 µM.

For the origin of these results see BindingDB's records for doi:10.1021/jm990343b (Purdue University, 1999).
